Reference: patent publication US20220233708A1, “ANTIBODY-DRUG CONJUGATE, INTERMEDIATE THEREOF, PREPARATION METHOD THEREFOR AND APPLICATION THEREOF” (priority 2019, published 2022)
Starred links: 1 amine or outer side, 2 acyl side, 3 side chain; linkers in the order of their positions; H or OH if unused. Non-standard residues stand in square brackets, D forms with d. Residues, ends and D or L forms follow the SMILES beside them. *: point of attachment. Exatecan = CC[C@@]1(O)C(=O)OCc2c1cc1n(c2=O)Cc2c-1nc1cc(F)c(C)c3c1c2[C@@H](N*)CC3; X2 = CC[C@@]1(O)C(=O)OC(=O)C2=C1C=C1c3nc4cc(F)c(C)c5c4c(c3CN1C2)[C@@H](N*)CC5; Hexanoyl(6-maleimido) = O=C1C=CC(=O)N1CCCCCC(=O)*; X3 = O=C1C=CC(=O)N1CC1CCC(C(=O)*)CC1; X1 = O=C1C=C(Br)C(=O)N1CCCCCC(=O)*; NHCH2OCH2CO = O=C(COCN[*:1])[*:2]

Legend:
anti-B7-H3 antibody P2E5 = assay: Coupling of linker-drug conjugates with P2E5; format: physicochemical; details: coupling with P2E5, highest DAR (excessive coupling)
Procedure: (§1) The anti-B7-H3 antibody P2E5, anti-Claudin18.2 antibody IMAB362, and anti-HER2 antibody Trastuzumab (concentration was 15 mg/mL) were replaced into 50 mM PB/1.0 mM EDTA buffer (pH 7.0) by a G25 desalting column, respectively. 12 equivalents of TECP was added and the mixture was stirred at 37° C. for 2 hours to fully open the disulfide bonds between the antibody chains. Then phosphoric acid was used to adjust the pH of the reduced antibody solution to 6.0, and the temperature of the water bath was lowered to 25° C. for coupling reaction. […] After the reaction was completed, the sample was filtered with a 0.22 μm membrane. Uncoupled small molecules were purified and removed by a tangential flow ultrafiltration system. The buffer was 50 mM PB/1.0 mM EDTA solution (pH 6.0). After purification, sucrose (final concentration was 6%) was added, and the mixture was stored in a refrigerator at −20° C. The UV method was used to measure the absorbance values at 280 nm and 370 nm respectively, and the DAR value was calculated.

[1] = system: anti-Claudin18.2 antibody IMAB362; assay: Coupling of linker-drug conjugates with IMAB362; format: physicochemical; details: coupling with IMAB362, highest DAR (excessive coupling)
Procedure: as §1

[2] = system: anti-HER2 antibody Trastuzumab; assay: Coupling of linker-drug conjugates with Trastuzumab; format: physicochemical; details: highest DAR (excessive coupling)
Procedure: as §1

cathepsin B = cathepsin B (Homo sapiens, UniProt P07858); assay: In vitro enzyme cleavage experiment of linker-drug conjugates; format: in vitro ADME; details: pH 5.0 to pH 7.0
Procedure: Linker-drug conjugates (LE14 and GGFG-Dxd) and cathepsin B were incubated in three different pH (5.0, 6.0, 7.0) buffers, and samples were taken at different time points into the high performance liquid chromatography-mass spectrometer. The release percentage of the drug was determined by external standard method (with Dxd as the external standard).

## CC[C@@]1(O)C(=O)OCc2c1cc1n(c2=O)Cc2c-1nc1cc(F)c(C)c3c1c2[C@@H](NC(=O)COCNC(=O)CNC(=O)[C@H](Cc1ccccc1)NC(=O)CNC(=O)CNC(=O)C1CCC(CN2C(=O)C=CC2=O)CC1)CC3 (stereo partly shown) [LE01] (X3-GGFG[NHCH2OCH2CO]-Exatecan)
anti-B7-H3 antibody P2E5
  Ratio of aggregates: 2.1%
  Whether precipitation: No
[1]
  Ratio of aggregates: 2.0%
  Whether precipitation: No
[2]
  Ratio of aggregates: 0.2%
  Whether precipitation: No

## CCC1(O)C(=O)OC(=O)C2=C1C=C1c3nc4cc(F)c(C)c5c4c(c3CN1C2)C(NC(=O)COCNC(=O)CNC(=O)C(Cc1ccccc1)NC(=O)CNC(=O)CNC(=O)C(CCCCN1C(=O)C=CC1=O)S(=O)(=O)O)CC5 (stereo not shown) [LE02]
anti-B7-H3 antibody P2E5
  Ratio of aggregates: 1.3%
  Whether precipitation: No
[1]
  Ratio of aggregates: 1.8%
  Whether precipitation: No
[2]
  Ratio of aggregates: 0.2%
  Whether precipitation: No

## CCC1(O)C(=O)OC(=O)C2=C1C=C1c3nc4cc(F)c(C)c5c4c(c3CN1C2)C(NC(=O)COCNC(=O)CNC(=O)C(Cc1ccccc1)NC(=O)CNC(=O)CNC(=O)C(CN)N1C(=O)C=CC1=O)CC5 (stereo not shown) [LE03]
anti-B7-H3 antibody P2E5
  Ratio of aggregates: 1.1%
  Whether precipitation: No
[1]
  Ratio of aggregates: 1.5%
  Whether precipitation: No
[2]
  Ratio of aggregates: 0.2%
  Whether precipitation: No

## CCC1(O)C(=O)OC(=O)C2=C1C=C1c3nc4cc(F)c(C)c5c4c(c3CN1C2)C(NC(=O)COCNC(=O)CNC(=O)C(Cc1ccccc1)NC(=O)CNC(=O)CNC(=O)CCOCCOCCOCCOCCOCCOCCOCCOCCN1C(=O)C=CC1=O)CC5 (stereo not shown) [LE04]
anti-B7-H3 antibody P2E5
  Ratio of aggregates: 2.5%
  Whether precipitation: No
[1]
  Ratio of aggregates: 2.1%
  Whether precipitation: No
[2]
  Ratio of aggregates: 0.1%
  Whether precipitation: No

## CC[C@@]1(O)C(=O)OCc2c1cc1n(c2=O)Cc2c-1nc1cc(F)c(C)c3c1c2[C@@H](NC(=O)COCNC(=O)CNC(=O)[C@H](Cc1ccccc1)NC(=O)CNC(=O)CNC(=O)CCCCCN1C(=O)C=C(Br)C1=O)CC3 [LE05] (X1-GGFG[NHCH2OCH2CO]-Exatecan)
anti-B7-H3 antibody P2E5
  Ratio of aggregates: 1.6%
  Whether precipitation: No
[1]
  Ratio of aggregates: 2.3%
  Whether precipitation: No
[2]
  Ratio of aggregates: 0.1%
  Whether precipitation: No

## CC[C@@]1(O)C(=O)OC(=O)C2=C1C=C1c3nc4cc(F)c(C)c5c4c(c3CN1C2)[C@@H](NC(=O)COCNC(=O)CNC(=O)[C@H](Cc1ccccc1)NC(=O)CNC(=O)CNC(=O)[C@H](CCCCN)NC(=O)CCCCCN1C(=O)C=CC1=O)CC5 [LE06] ({Hexanoyl(6-maleimido)}-KGGFG[NHCH2OCH2CO]-X2)
anti-B7-H3 antibody P2E5
  Ratio of aggregates: 1.2%
  Whether precipitation: No
[1]
  Ratio of aggregates: 1.7%
  Whether precipitation: No
[2]
  Ratio of aggregates: 0.5%
  Whether precipitation: No

## CC[C@@]1(O)C(=O)OCc2c1cc1n(c2=O)Cc2c-1nc1cc(F)c(C)c3c1c2[C@@H](NC(=O)COCNC(=O)CNC(=O)[C@H](Cc1ccccc1)NC(=O)CNC(=O)[C@H](CCCCN)NC(=O)CCCCCN1C(=O)C=CC1=O)CC3.O=C(O)C(F)(F)F [LE07] ({Hexanoyl(6-maleimido)}-KGFG[NHCH2OCH2CO]-Exatecan)
anti-B7-H3 antibody P2E5
  Ratio of aggregates: 1.3%
  Whether precipitation: No
[1]
  Ratio of aggregates: 1.6%
  Whether precipitation: No
[2]
  Ratio of aggregates: 0.5%
  Whether precipitation: No

## CC[C@@]1(O)C(=O)OC(=O)C2=C1C=C1c3nc4cc(F)c(C)c5c4c(c3CN1C2)[C@@H](NC(=O)COCN(CCN(C)C)C(=O)OCc1ccc(NC(=O)[C@H](C)NC(=O)[C@@H](NC(=O)CCCCCN2C(=O)C=CC2=O)C(C)C)cc1)CC5 [LE13]
anti-B7-H3 antibody P2E5
  Ratio of aggregates: 1.5%
  Whether precipitation: No
[1]
  Ratio of aggregates: 2.3%
  Whether precipitation: No
[2]
  Ratio of aggregates: 0.1%
  Whether precipitation: No

## CC[C@@]1(O)C(=O)OC(=O)C2=C1C=C1c3nc4cc(F)c(C)c5c4c(c3CN1C2)[C@@H](NC(=O)COCN(CCS(C)(=O)=O)C(=O)OCc1ccc(NC(=O)[C@H](C)NC(=O)[C@@H](NC(=O)CCCCCN2C(=O)C=CC2=O)C(C)C)cc1)CC5 [LE14]
anti-B7-H3 antibody P2E5
  Ratio of aggregates: 1.3%
  Whether precipitation: No
[1]
  Ratio of aggregates: 2.5%
  Whether precipitation: No
[2]
  Ratio of aggregates: 0.3%
  Whether precipitation: No
Cathepsin B
  Enzyme cleavage speed (in words): could quickly cleave

## CC[C@@]1(O)C(=O)OC(=O)C2=C1C=C1c3nc4cc(F)c(C)c5c4c(c3CN1C2)[C@@H](NC(=O)COCN(CCS(C)(=O)=O)C(=O)OCc1ccc(NC(=O)[C@H](C)NC(=O)[C@@H](NC(=O)C(CCCCN2C(=O)C=CC2=O)S(=O)(=O)O)C(C)C)cc1)CC5 (stereo partly shown) [LE15]
anti-B7-H3 antibody P2E5
  Ratio of aggregates: 2.1%
  Whether precipitation: No
[1]
  Ratio of aggregates: 1.6%
  Whether precipitation: No
[2]
  Ratio of aggregates: 0.2%
  Whether precipitation: No

## CC[C@@]1(O)C(=O)OC(=O)C2=C1C=C1c3nc4cc(F)c(C)c5c4c(c3CN1C2)[C@@H](NC(=O)COCN(CCS(C)(=O)=O)C(=O)OCc1ccc(NC(=O)[C@H](C)NC(=O)[C@@H](NC(=O)C2CCC(CN3C(=O)C=CC3=O)CC2)C(C)C)cc1)CC5 (stereo partly shown) [LE16]
anti-B7-H3 antibody P2E5
  Ratio of aggregates: 2.0%
  Whether precipitation: No
[1]
  Ratio of aggregates: 1.5%
  Whether precipitation: No
[2]
  Ratio of aggregates: 0.5%
  Whether precipitation: No

## CC[C@@]1(O)C(=O)OC(=O)C2=C1C=C1c3nc4cc(F)c(C)c5c4c(c3CN1C2)[C@@H](NC(=O)COCN(CCN(C)C)C(=O)OCc1ccc(NC(=O)[C@H](C)NC(=O)[C@@H](NC(=O)C2CCC(CN3C(=O)C=CC3=O)CC2)C(C)C)cc1)CC5 (stereo partly shown) [LE17]
anti-B7-H3 antibody P2E5
  Ratio of aggregates: 1.5%
  Whether precipitation: No
[1]
  Ratio of aggregates: 1.6%
  Whether precipitation: No
[2]
  Ratio of aggregates: 0.1%
  Whether precipitation: No

## CC[C@@]1(O)C(=O)OC(=O)C2=C1C=C1c3nc4cc(F)c(C)c5c4c(c3CN1C2)[C@@H](NC(=O)COCN(CCS(C)(=O)=O)C(=O)OCc1ccc(NC(=O)[C@H](C)NC(=O)[C@@H](NC(=O)CCCn2cc(CNC3CCC(CN4C(=O)C=CC4=O)CC3)nn2)C(C)C)cc1)CC5 (stereo partly shown) [LE18]
anti-B7-H3 antibody P2E5
  Ratio of aggregates: 1.6%
  Whether precipitation: No
[1]
  Ratio of aggregates: 2.1%
  Whether precipitation: No
[2]
  Ratio of aggregates: 0.1%
  Whether precipitation: No

## CC[C@@]1(O)C(=O)OC(=O)C2=C1C=C1c3nc4cc(F)c(C)c5c4c(c3CN1C2)[C@@H](NC(=O)COCN(CCS(C)(=O)=O)C(=O)OCc1ccc(NC(=O)[C@H](C)NC(=O)[C@@H](NC(=O)CCCn2cc(CNC(=O)CCCCCN3C(=O)C=CC3=O)nn2)C(C)C)cc1)CC5 [LE19]
anti-B7-H3 antibody P2E5
  Ratio of aggregates: 1.2%
  Whether precipitation: No
[1]
  Ratio of aggregates: 1.4%
  Whether precipitation: No
[2]
  Ratio of aggregates: 0.2%
  Whether precipitation: No

## CC[C@@]1(OCN(CCS(C)(=O)=O)C(=O)OCc2ccc(NC(=O)[C@H](C)NC(=O)[C@@H](NC(=O)CCCCCN3C(=O)C=CC3=O)C(C)C)cc2)C(=O)OCc2c1cc1n(c2=O)Cc2c-1nc1cc(F)c(C)c3c1c2[C@@H](NC(=O)CO)CC3 [LE21]
anti-B7-H3 antibody P2E5
  Ratio of aggregates: 2.2%
  Whether precipitation: No
[1]
  Ratio of aggregates: 2.3%
  Whether precipitation: No
[2]
  Ratio of aggregates: 0.2%
  Whether precipitation: No

## CC[C@@]1(OCN(CCN(C)C)C(=O)OCc2ccc(NC(=O)[C@H](C)NC(=O)[C@@H](NC(=O)CCCCCN3C(=O)C=CC3=O)C(C)C)cc2)C(=O)OCc2c1cc1n(c2=O)Cc2c-1nc1cc(F)c(C)c3c1c2[C@@H](NC(=O)CO)CC3 [LE22]
anti-B7-H3 antibody P2E5
  Ratio of aggregates: 2.1%
  Whether precipitation: No
[1]
  Ratio of aggregates: 1.5%
  Whether precipitation: No
[2]
  Ratio of aggregates: 0.5%
  Whether precipitation: No

## CC[C@@]1(O)C(=O)OCc2c1cc1n(c2=O)Cc2c-1nc1cc(F)c(C)c3c1c2[C@@H](NC(=O)COCNC(=O)CNC(=O)[C@H](Cc1ccccc1)NC(=O)[C@H](C)NC(=O)[C@@H](NC(=O)CCCCCN1C(=O)C=CC1=O)C(C)C)CC3 [LE23] ({Hexanoyl(6-maleimido)}-VAFG[NHCH2OCH2CO]-Exatecan)
anti-B7-H3 antibody P2E5
  Ratio of aggregates: 1.9%
  Whether precipitation: No
[1]
  Ratio of aggregates: 1.6%
  Whether precipitation: No
[2]
  Ratio of aggregates: 0.1%
  Whether precipitation: No

## CC[C@@]1(O)C(=O)OCc2c1cc1n(c2=O)Cc2c-1nc1cc(F)c(C)c3c1c2[C@@H](NC(=O)COCNC(=O)CNC(=O)[C@H](Cc1ccccc1)NC(=O)[C@H](CS)NC(=O)[C@@H](NC(=O)CCCCCN1C(=O)C=CC1=O)C(C)C)CC3 [LE24] ({Hexanoyl(6-maleimido)}-VCFG[NHCH2OCH2CO]-Exatecan)
anti-B7-H3 antibody P2E5
  Ratio of aggregates: 1.2%
  Whether precipitation: No
[1]
  Ratio of aggregates: 2.0%
  Whether precipitation: No
[2]
  Ratio of aggregates: 0.1%
  Whether precipitation: No
